Results taken from patent US8323971B2, “Differentiation of pluripotent cells into primary germ layer progenitors” (Cambridge Enterprise Limited, priority 2006, dated 2012).

System: hESCs
Test: Microarray analysis of hESCs grown 36 h in CDM alone or CDM plus BMP4
Type: cell-based, human
Settings: hESCs 36 h, CDM plus 10 ng/ml BMP4 vs CDM alone
Description: The change in RNA expression of genes associated with particular cell types is indicated in the following panels. […] In all tables, the ‘margin’ value represents the fold change in mRNA expression (log 2 scale) with a negative value indicating down regulation after BMP4 treatment compared to CDM alone.
Sample RNA was hybridized to Affymetrix hg-u133+2 GeneChips ©. All sample arrays were background corrected, normalized and summarized using default parameters of the RMA model. Array processing was performed using the affy package of the Bioconductor (found on the world wide web at the hypertext protocol transfer address of “bioconductor.org”) suite of software for the R statistical programming language (found on the world wide web at the hypertext protocol transfer address of “r-project.org”). The resulting data set contained processed gene expression values for 54675 probe-sets. Analysis of Differential Regulation: The moderated t-statistic […], implemented in the Limma package of Bioconductor, was employed to assess the significance of differential gene (probe-set) expression between sample groups. In order to reduce errors associated with multiple hypothesis testing on such a scale, the significance p-values obtained were converted to corrected q-values using the FDR method.
Data Visualisation: Heat maps of gene expression were created by importing relevant subsets of RMA processed microarray gene expression data into the dChip v1.3 microarray analysis package (found on the world wide web at the hypertext protocol transfer address of “biostat.harvard.edu/complab/dchip/”). In the case wherein a gene is represented by more than one probe-set on the array, a single probe-set was chosen to represent gene expression in the heat map according to highest mean expression over all samples (i.e. the most reliable sample hybridization regardless of group membership).

With “BMP4: Bone Morphogenetic Protein 4 growth factor” the “Margin, ACTC mRNA” value was 4.16 log 2 scale, the “Margin, ADRA2A mRNA” value was −2.49 log 2 scale and the “Margin, AGTRL1 mRNA” value was 4.35 log 2 scale. For the same substance, the “Margin, AK3 mRNA” value was −2.55 log 2 scale, the “Margin, ARGBP2 mRNA” value was −3.43 log 2 scale and the “Margin, BAMBI mRNA” value was 3.86 log 2 scale. The “Margin, C2orf31 mRNA” value was −2.72 log 2 scale, the “Margin, C10orf13 mRNA” value was −2.63 log 2 scale and the “Margin, C14orf29 mRNA” value was −2.44 log 2 scale. For the same substance, the “Margin, CACNA2D3 mRNA” value was −2.42 log 2 scale, the “Margin, CDH11 mRNA” value was 3.81 log 2 scale and the “Margin, CFC1 mRNA” value was 4.45 log 2 scale. The “Margin, CHST9 mRNA” value was −2.54 log 2 scale, the “Margin, CLIC5 mRNA” value was 5.04 log 2 scale and the “Margin, COL3A1 mRNA” value was 4.47 log 2 scale. For the same substance, the “Margin, CRH mRNA” value was 5.13 log 2 scale, the “Margin, CUZD1 mRNA” value was −2.4 log 2 scale and the “Margin, CYP26A1 mRNA” value was −2.51 log 2 scale. For the same substance, the “Margin, D21S2088E mRNA” value was −2.67 log 2 scale, the “Margin, DIO2 mRNA” value was 4.29 log 2 scale and the “Margin, DKK4 mRNA” value was −3.09 log 2 scale. The “Margin, DLX2 mRNA” value was 6.43 log 2 scale, the “Margin, DLX5 mRNA” value was 4.04 log 2 scale and the “Margin, DLX6 mRNA” value was 4.66 log 2 scale. The “Margin, EFNA1 mRNA” value was 4.35 log 2 scale, the “Margin, EPAS1 mRNA” value was 6.2 log 2 scale and the “Margin, ETV1 mRNA” value was −2.49 log 2 scale. For the same substance, the “Margin, FLJ25477 mRNA” value was 4.77 log 2 scale, the “Margin, FLJ90231 mRNA” value was −3.15 log 2 scale and the “Margin, FOXA2 mRNA (splice variant)” value was −3.38 log 2 scale. For the same substance, the “Margin, FOXF1 mRNA” value was 4.84 log 2 scale, the “Margin, GABRP mRNA” value was 7.34 log 2 scale and the “Margin, GATA3 mRNA” value was 6.21 log 2 scale. The “Margin, GATA5 mRNA” value was 4 log 2 scale, the “Margin, GDF3 mRNA” value was −3.47 log 2 scale and the “Margin, GPR64 mRNA” value was −2.46 log 2 scale. The “Margin, H19 mRNA” value was 3.98 log 2 scale, the “Margin, HAND1 mRNA” value was 7.27 log 2 scale and the “Margin, HAPLN1 mRNA” value was 8.04 log 2 scale. For the same substance, the “Margin, HESX1 mRNA” value was −2.36 log 2 scale, the “Margin, HEY1 mRNA” value was 3.93 log 2 scale and the “Margin, HHEX mRNA” value was −2.58 log 2 scale. The “Margin, HOXB6 mRNA” value was 5.19 log 2 scale, the “Margin, ID4 mRNA” value was 5.47 log 2 scale and the “Margin, IGFBP3 mRNA” value was 4.44 log 2 scale. For the same substance, the “Margin, IPO9 mRNA” value was −2.83 log 2 scale, the “Margin, ISL1 mRNA” value was 6.5 log 2 scale and the “Margin, KAL1 mRNA” value was −2.98 log 2 scale. The “Margin, KCND2 mRNA” value was −2.74 log 2 scale, the “Margin, KCTD12 mRNA” value was 4.01 log 2 scale and the “Margin, KIAA0882 mRNA” value was 3.81 log 2 scale. The “Margin, KLF4 mRNA” value was −2.4 log 2 scale, the “Margin, KRT7 mRNA” value was 3.91 log 2 scale and the “Margin, LCK mRNA” value was −2.65 log 2 scale. For the same substance, the “Margin, LECT1 mRNA” value was −2.55 log 2 scale, the “Margin, LEFTY1 mRNA” value was −6.56 log 2 scale and the “Margin, LEFTY2 mRNA” value was −3.12 log 2 scale. For the same substance, the “Margin, LIX1 mRNA” value was 4.3 log 2 scale, the “Margin, LOC152573 mRNA” value was −5.04 log 2 scale and the “Margin, LOC153469 mRNA” value was −4.72 log 2 scale. For the same substance, the “Margin, LOC387763 mRNA” value was 4.25 log 2 scale, the “Margin, LRAT mRNA” value was −4.97 log 2 scale and the “Margin, LRIG1 mRNA” value was −2.82 log 2 scale. The “Margin, LUM mRNA” value was 5.88 log 2 scale, the “Margin, MAL2 mRNA” value was −2.37 log 2 scale and the “Margin, MEGF10 mRNA” value was −3.14 log 2 scale. The “Margin, MEIS1 mRNA” value was 4.02 log 2 scale, the “Margin, MESP1 mRNA” value was 4.03 log 2 scale and the “Margin, MGC26963 mRNA” value was −4.02 log 2 scale. For the same substance, the “Margin, MSX1 mRNA” value was 4.28 log 2 scale, the “Margin, MSX2 mRNA” value was 5.43 log 2 scale and the “Margin, MYOCD mRNA” value was 4.49 log 2 scale. For the same substance, the “Margin, NANOG mRNA” value was −3.22 log 2 scale, the “Margin, NCRMS mRNA” value was −2.98 log 2 scale and the “Margin, NFE2L3 mRNA” value was −2.74 log 2 scale. For the same substance, the “Margin, NODAL mRNA” value was −2.93 log 2 scale, the “Margin, NOG mRNA” value was 4.37 log 2 scale and the “Margin, OLIG3 mRNA” value was −3.9 log 2 scale. For the same substance, the “Margin, OTX2 mRNA” value was −4.89 log 2 scale, the “Margin, PAPLN mRNA” value was −3.53 log 2 scale and the “Margin, PARG1 mRNA” value was 4.04 log 2 scale. The “Margin, PIPOX mRNA” value was −2.58 log 2 scale, the “Margin, POSTN mRNA” value was 5.83 log 2 scale and the “Margin, PPP2R2B mRNA” value was −3.6 log 2 scale. The “Margin, PRKD1 mRNA” value was 3.91 log 2 scale, the “Margin, PRSS12 mRNA” value was 4.09 log 2 scale and the “Margin, PTPRZ1 mRNA” value was −2.37 log 2 scale. The “Margin, RAM2 mRNA” value was −2.8 log 2 scale, the “Margin, RET mRNA” value was −2.97 log 2 scale and the “Margin, RGS4 mRNA” value was 3.85 log 2 scale. For the same substance, the “Margin, RGS5 mRNA” value was 4.46 log 2 scale, the “Margin, RGS13 mRNA” value was 4.42 log 2 scale and the “Margin, SEMA3C mRNA” value was 3.89 log 2 scale. The “Margin, SFRP1 mRNA” value was −2.36 log 2 scale, the “Margin, SFRP2 mRNA” value was −2.75 log 2 scale and the “Margin, SLC1A6 mRNA” value was −2.39 log 2 scale. The “Margin, SLC16A4 mRNA” value was 4 log 2 scale, the “Margin, SLC40A1 mRNA” value was 4.19 log 2 scale and the “Margin, SNAI2 mRNA” value was 4.92 log 2 scale. For the same substance, the “Margin, SOCS3 mRNA” value was 3.98 log 2 scale, the “Margin, SOX2 mRNA” value was −3.64 log 2 scale and the “Margin, SOX7 mRNA” value was 4.13 log 2 scale. For the same substance, the “Margin, SYNPO2 mRNA” value was 4.46 log 2 scale, the “Margin, TBX3 mRNA” value was 6.42 log 2 scale and the “Margin, TFAP2A mRNA” value was 4.98 log 2 scale. For the same substance, the “Margin, TFCP2L2 mRNA” value was 3.87 log 2 scale, the “Margin, TFCP2L4 mRNA” value was 4.92 log 2 scale and the “Margin, THBS2 mRNA” value was −3.73 log 2 scale. The “Margin, TIMP4 mRNA” value was −2.9 log 2 scale, the “Margin, TMEM46 mRNA” value was −3.57 log 2 scale and the “Margin, TOX mRNA” value was −3.03 log 2 scale. The “Margin, TRIM55 mRNA” value was 4.24 log 2 scale, the “Margin, TRPC4 mRNA” value was −2.52 log 2 scale and the “Margin, UGT8 mRNA” value was −3.57 log 2 scale. The “Margin, USP44 mRNA” value was −3.63 log 2 scale and the “Margin, UTF1 mRNA” value was −2.47 log 2 scale.
